Test [1] concerns the target T1, human histamine H4 receptor (Homo sapiens, UniProt Q9H3N8).
T1 construct: purchased Euroscreen/Perkin-Elmer
As to the kind of experiment: Competitive binding assay of [3H]-histamine to the human histamine H4 receptor. The note with it: 10 nM [3H]-histamine, CHO membrane extract; for inhibition at 1 µM: at a concentration of 1 μM. Here is the method: Competitive Binding Assay of [^3H]-histamine to the Human Histamine H4 Receptor
To perform the binding assay, membrane extracts prepared from a stable CHO recombinant cell line expressing the human histamine H4 receptor (Euroscreen/Perkin-Elmer) were used.
The compounds to be tested were incubated at the desired concentration in duplicate with 10 nM [^3H]-histamine and 15 μg membrane extract in a total volume of 250 μL of 50 mM Tris-HCl, pH 7.4, 1.25 mM EDTA for 60 minutes at 25° C. Non-specific binding was defined in the presence of 100 μM of unlabelled histamine. The reaction was stopped by filtration using a vacuum collector (Multiscreen Millipore) in 96-well plates (MultiScreen HTS Millipore) that had been previously soaked in 0.5% polyethylenimine for 2 hours at 0° C. The plates were subsequently washed with 50 mM Tris (pH 7.4), 1.25 mM EDTA at 0° C., and the filters were dried for 1 hour at 50-60° C., before adding the scintillation liquid in order to determine bound radioactivity by means of a betaplate scintillation counter.

The next test concerns human eosinophils. As to the kind of experiment: Histamine-induced shape change assay (Gated Autofluorescence Forward Scatter assay, GAFS) in human eosinophils. It counts as cell-based. The note with it: Eosinophil, stimulated with 300 nM histamine. Here is the method:
Histamine-induced Shape Change Assay (Gated Autofluorescence Forward Scatter Assay, GAFS) in Human Eosinophils
In this assay the shape change induced by histamine in human eosinophils is determined by flow cytometry, detected as an increase in the size of the cells (forward scatter, FSC).
Polymorphonuclear leucocytes (PMNL, fraction containing neutrophils and eosinophils) were prepared from whole blood of human healthy volunteers. Briefly, erythrocytes were separated by sedimentation in 1.2% Dextran (SIGMA), and the leucocyte-rich fraction (PMNL) was isolated from the top layer by centrifugation at 450 g for 20 min in the presence of Ficoll-Paque® (Biochrom). PMNLs were resuspended in PBS buffer at a concentration of 1.1×10^6 cells/ml/tube and were pretreated with different concentrations of test compounds (dissolved in PBS) for 30 min at 37° C. and then stimulated with 300 nM histamine (Fluka) for 5 min. Finally, paraformaldehyde (1% final concentration in PBS) was added to terminate the reaction and maintain cell shape. Cell shape change was analyzed by flow cytometry (FACS Calibur, BD Biosystems). Eosinophils in PMNL were gated based on their higher autofluorescence relative to that of neutrophils (fluorescence channel FL2). Cell shape change was monitored in forward scatter signals (FSC). Results are expressed as percentage inhibition of shape change induced by histamine for each concentration of test compound.

Drawing on patent US8431580B2, “4-aminopyrimidine derivatives as histamine H4 receptor antagonists” (Palau Pharma, S.A., priority 2007, dated 2013), this text covers inhibition for 22 molecules.

T1 sequence (Q9H3N8 whole entry): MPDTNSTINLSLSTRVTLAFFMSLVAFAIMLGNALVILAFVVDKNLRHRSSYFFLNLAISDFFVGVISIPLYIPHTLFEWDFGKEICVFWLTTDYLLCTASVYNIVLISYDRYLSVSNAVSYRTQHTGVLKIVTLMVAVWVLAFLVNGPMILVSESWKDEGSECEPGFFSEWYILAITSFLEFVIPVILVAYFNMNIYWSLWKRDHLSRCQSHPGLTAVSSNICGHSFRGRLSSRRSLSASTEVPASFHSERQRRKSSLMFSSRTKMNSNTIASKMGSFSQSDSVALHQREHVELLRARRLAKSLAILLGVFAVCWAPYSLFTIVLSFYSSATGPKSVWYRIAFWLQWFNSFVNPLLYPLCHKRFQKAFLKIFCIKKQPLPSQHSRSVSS

On to `CN[C@@H]1CCN(c2cc(N)nc(C3CC3)n2)C1` [Example 10, 2-Cyclopropyl-6-((3R)-3-(methylamino)pyrrolidin-1-yl)pyrimidin-4-amine], for which, in test [1], the inhibition at 1 µM is greater than 50%. Molecule `CN[C@@H]1CCN(c2cc(N)nc(CC3CCCCC3)n2)C1` [Example 2, 2-Cyclohexylmethyl-6-((3R)-3-(methylamino)pyrrolidin-1-yl)pyrimidin-4-amine] came in with an inhibition at 10 µM in test [1] greater than 50%. In the test on human eosinophils, this molecule yielded an inhibition at 1 µM greater than 50%. The molecule `CNC1(C)CN(c2cc(N)nc(CC(C)C)n2)C1` [Example 15, 2-Isobutyl-6-(3-methyl-3-(methylamino)azetidin-1-yl)pyrimidin-4-amine] gave an inhibition at 10 µM in test [1] greater than 50%. This molecule came in with an inhibition at 1 µM in the test with human eosinophils greater than 50%.

As for `CNC1CN(c2cc(N)nc(CC(C)C)n2)C1` [Example 4, 2-Isobutyl-6-(3-(methylamino)azetidin-1-yl)pyrimidin-4-amine], in test [1], the inhibition at 10 µM is greater than 50%. This molecule yielded an inhibition at 1 µM in the test on human eosinophils greater than 50%. In the case of `CN[C@@H]1CCN(c2cc(N)nc(C(C)C)n2)C1` [Example 12, 2-Isopropyl-6-((3R)-3-(methylamino)pyrrolidin-1-yl)pyrimidin-4-amine], the inhibition at 1 µM (in test [1]; in the test with human eosinophils) was greater than 50% each time.

`CNC1CN(c2cc(N)nc(COc3ccccc3)n2)C1` [Example 9, 6-(3-(methylamino)azetidin-1-yl)-2-(phenoxymethyl)pyrimidin-4-amine] had an inhibition at 10 µM in test [1] greater than 50%. In test [1], `CNC1CN(c2cc(N)nc(C(C)(C)C)n2)C1` [Example 6, 2-tert-Butyl-6-(3-(methylamino)azetidin-1-yl)pyrimidin-4-amine] had an inhibition at 10 µM greater than 50%. Turning to `CN[C@@H]1CCN(c2cc(N)nc(CC(C)C)n2)C1` [Example 1, 2-Isobutyl-6-((3R)-3-(methylamino)pyrrolidin-1-yl)pyrimidin-4-amine], the inhibition at 10 µM in test [1] was greater than 50%. In the test with human eosinophils, this molecule registered an inhibition at 1 µM greater than 50%. In turn, `CN[C@@H]1CCN(c2cc(N)nc(C3CCC3)n2)C1` [Example 18, 2-Cyclobutyl-6-((3R)-3-(methylamino)pyrrolidin-1-yl)pyrimidin-4-amine] came in with an inhibition at 10 µM in test [1] greater than 50%. Moreover, the inhibition at 1 µM with human eosinophils is greater than 50%.

Molecule `CNC1CN(c2cc(N)nc(C3CC3)n2)C1` [Example 5, 2-Cyclopropyl-6-(3-(methylamino)azetidin-1-yl)pyrimidin-4-amine] had an inhibition at 10 µM in test [1] greater than 50%. With `CNC1CN(c2cc(N)nc(C3CCCC3)n2)C1` [Example 19, 2-Cyclopentyl-6-(3-(methylamino)azetidin-1-yl)pyrimidin-4-amine], the inhibition at 10 µM in test [1] was greater than 50%. This molecule returned an inhibition at 1 µM in the test with human eosinophils greater than 50%. The molecule `CNC1CN(c2cc(N)nc(CC(C)(C)C)n2)C1` [Example 21, 2-(2,2-Dimethylpropyl)-6-(3-(methylamino)azetidin-1-yl)pyrimidin-4-amine] came in with an inhibition at 10 µM in test [1] greater than 50%. For the same molecule, the inhibition at 1 µM in the test on human eosinophils is greater than 50%. In turn, `CC(C)Cc1nc(N)cc(N2CC[C@@H](N)C2)n1` [Example 16, 6-((3R)-3-aminopyrrolidin-1-yl)-2-isobutylpyrimidin-4-amine] gave an inhibition at 10 µM in test [1] greater than 50%. The same measure, in the same setting: under `CNC1CN(c2cc(N)nc(C(C)C)n2)C1` [Example 7, 2-Isopropyl-6-(3-(methylamino)azetidin-1-yl)pyrimidin-4-amine] stands greater than 50%; under `CC(C)Cc1nc(N)cc(N2CC(N)C2)n1` [Example 14, 6-(3-Aminoazetidin-1-yl)-2-isobutylpyrimidin-4-amine], greater than 50%; under `CN[C@@H]1CCN(c2cc(N)nc(COc3ccccc3)n2)C1` [Example 13, 6-((3R)-3-(methylamino)pyrrolidin-1-yl)-2-(phenoxymethyl)pyrimidin-4-amine], greater than 50%. The same measure, in the same setting: under `CN[C@@H]1CCN(c2cc(N)nc(CCC3CCCC3)n2)C1` [Example 23, 2-(2-Cyclopentylethyl)-6-((3R)-3-(methylamino)pyrrolidin-1-yl)pyrimidin-4-amine] stands greater than 50%. `CN[C@@H]1CCN(c2cc(N)nc(CC(C)(C)C)n2)C1` [Example 22, 2-(2,2-Dimethylpropyl)-6-((3R)-3-(methylamino)pyrrolidin-1-yl)pyrimidin-4-amine] yielded an inhibition at 10 µM in test [1] greater than 50%. This molecule showed an inhibition at 1 µM with human eosinophils greater than 50%. Take `CN[C@@H]1CCN(c2cc(N)nc(C3CCCC3)n2)C1` [Example 20, 2-Cyclopentyl-6-((3R)-3-(methylamino)pyrrolidin-1-yl)pyrimidin-4-amine]: the inhibition at 10 µM in test [1] was greater than 50%. The same molecule registered an inhibition at 1 µM in the test on human eosinophils greater than 50%.

For `CNC1CN(c2cc(N)nc(C3CCC3)n2)C1` [Example 17, 2-Cyclobutyl-6-(3-(methylamino)azetidin-1-yl)pyrimidin-4-amine], in test [1], the inhibition at 10 µM was greater than 50%. For the same molecule, in the test with human eosinophils, the inhibition at 1 µM is greater than 50%.

For the molecule `CNC1CN(c2cc(N)nc(Cc3ccc(F)cc3)n2)C1` [Example 3, 2-(4-Fluorobenzyl)-6-(3-(methylamino)azetidin-1-yl)pyrimidin-4-amine], the inhibition at 10 µM in test [1] is greater than 50%. The same molecule gave an inhibition at 1 µM with human eosinophils greater than 50%. `CN[C@@H]1CCN(c2cc(N)nc(C(C)(C)C)n2)C1` [Example 11, 2-tert-Butyl-6-((3R)-3-(methylamino)pyrrolidin-1-yl)pyrimidin-4-amine]: the inhibition at 1 µM (in test [1]; with human eosinophils) was greater than 50% each time.
